From ChEMBL document CHEMBL4334456, “Moscatilin Ameliorates Tau Phosphorylation and Cognitive Deficits in Alzheimer's Disease Models” (J Nat Prod, 2019)
Activity calls are given as the source filed them. The rule behind the calls is not given here.

Tests used:
[1] = test system: SH-SY5Y; assay: Effect on total tau protein level in human SH-SY5Y cells at 0.1 to 5 uM pretreated for 12 to 24 hrs followed by OA addition and measured after 6 hrs by Western blot analysis; format: ADME, cell-based
[2] = target: Glycogen synthase kinase-3 beta (Homo sapiens) (UniProt P49841); assay: Inhibition of GSK-3beta in human SH-SY5Y cells harboring with pCAX/FLAG-tagged APP and pRK5/EGFP-tagged Tau P301L mutant at 0.1 to 10 uM assessed as reduction in GSK-3beta phosphorylation at Tyr216 residues after 24 hrs by Western blot analysis; format: cell-based
Sequence of Glycogen synthase kinase-3 beta (Homo sapiens) (P49841 whole entry, looked up): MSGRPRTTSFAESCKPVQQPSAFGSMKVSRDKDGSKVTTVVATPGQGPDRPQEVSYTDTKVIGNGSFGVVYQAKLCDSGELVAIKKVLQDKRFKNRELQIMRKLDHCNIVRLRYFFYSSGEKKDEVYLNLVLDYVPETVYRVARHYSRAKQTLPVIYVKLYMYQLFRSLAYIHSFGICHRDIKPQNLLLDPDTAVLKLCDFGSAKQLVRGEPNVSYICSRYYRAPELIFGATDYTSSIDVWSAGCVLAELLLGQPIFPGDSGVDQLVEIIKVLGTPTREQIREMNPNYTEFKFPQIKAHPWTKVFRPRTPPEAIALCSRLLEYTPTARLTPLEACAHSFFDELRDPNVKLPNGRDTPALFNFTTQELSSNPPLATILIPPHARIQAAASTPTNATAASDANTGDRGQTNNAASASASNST

[3] = target: Glycogen synthase kinase-3 beta (Homo sapiens) (UniProt P49841); assay: Inhibition of GSK-3beta in human SH-SY5Y cells harboring with pCAX/FLAG-tagged APP and pRK5/EGFP-tagged Tau P301L mutant assessed as reduction in tau phosphorylation at S404 residues after 12 to 24 hrs by Western blot analysis; format: cell-based
[4] = target: Glycogen synthase kinase-3 beta (Homo sapiens) (UniProt P49841); assay: Inhibition of GSK3beta in human SH-SY5Y cells assessed as reduction in tau phosphorylation at S262 residues at 0.1 to 5 uM pretreated for 12 to 24 hrs followed by OA addition and measured after 6 hrs by Western blot analysis; format: cell-based
[5] = target: Glycogen synthase kinase-3 beta (Mus musculus) (UniProt Q9WV60); assay: Inhibition of GSK-3beta in mouse Neuro2a cells harboring with pCAX/FLAG-tagged APP and pRK5/EGFP-tagged Tau P301L mutant assessed as reduction in tau phosphorylation at S396 residues after 12 to 24 hrs by Western blot analysis; format: cell-based
Sequence of Glycogen synthase kinase-3 beta (Mus musculus) (Q9WV60 whole entry, looked up): as the sequence (P49841 whole entry, looked up) above, with T390P, T392A, A400T, T402A counted along it

[6] = test system: Mus musculus; assay: Anti-alzhemeric activity in scopolamine-induced ICR mouse assessed as inhibition of tau phosphorylation at Ser396 residues in brain at 25 to 100 mg/kg, ip for 2 weeks followed by scopolamine treatment by Western blot analysis; format: functional, organism-based
[7] = test system: SH-SY5Y; assay: Effect on cell cycle arrest in OA-induced human SH-SY5Y cells assessed as accumulation at sub-G1 phase at 0.1 uM pretreated for 6 hrs followed by OA addition and measured after 16 hrs […] (reference value: 32.28%); format: functional
[8] = test system: Mus musculus; assay: Anti-alzhemeric activity in scopolamine-induced ICR mouse assessed as inhibition of tau phosphorylation at S202/T205 residues in brain at 25 to 100 mg/kg, ip for 2 weeks followed by scopolamine treatment by Western blot analysis; format: functional, organism-based
[9] = target: Glycogen synthase kinase-3 beta (Homo sapiens) (UniProt P49841); assay: Inhibition of GSK-3beta in human SH-SY5Y cells assessed as increase in GSK-3beta phosphorylation at Ser9 residues at 0.1 to 5 uM pretreated for 24 hrs followed by OA addition and measured after 6 hrs by Western blot analysis; format: cell-based
[10] = test system: SH-SY5Y; assay: Antioxidant activity in OA-induced human SH-SY5Y cells assessed as decrease in GSH level at 0.1 to 1 uM pretreated for 12 hrs followed by OA addition and measured after 12 hrs; format: functional, cell-based
[11] = test system: SH-SY5Y; assay: Cytotoxicity against human SH-SY5Y cells assessed as reduction in cell viability after 12 hrs by MTT assay; format: cell-based
[12] = target: Glycogen synthase kinase-3 beta (Homo sapiens) (UniProt P49841); assay: Inhibition of GSK3beta in human SH-SY5Y cells assessed as reduction in tau phosphorylation at S202/T205 residues at 0.1 to 5 uM pretreated for 12 to 24 hrs followed by OA addition and measured after 6 hrs by Western blot analysis; format: cell-based
[13] = target: Glycogen synthase kinase-3 beta (Mus musculus) (UniProt Q9WV60); assay: Inhibition of GSK3beta in mouse Neuro2a cells assessed as reduction in tau phosphorylation at S202/T205 residues at 0.1 to 5 uM pretreated for 12 to 24 hrs followed by OA addition and measured after 6 hrs by Western blot analysis; format: cell-based
[14] = test system: Mus musculus; assay: Anti-alzhemeric activity in scopolamine-induced ICR mouse assessed as increase in GSK-3beta phosphorylation Ser9 residues in hippocampal CA1 region at 25 to 100 mg/kg, ip for 2 weeks followed by scopolamine treatment by immunohistochemistry-based analysis; format: functional, organism-based
[15] = target: MAP kinase p38 (Homo sapiens) (UniProt O15264+Q15759+Q16539+P53778); assay: Inhibition of p38 phosphorylation in OA-induced human SH-SY5Y cells pretreated for 24 hrs followed by OA addition and measured after 6 hrs by Western blot analysis; format: cell-based
[16] = test system: SH-SY5Y; assay: Effect on total tau protein level in human SH-SY5Y cells harboring with pCAX/FLAG-tagged APP and pRK5/EGFP-tagged Tau P301L mutant at 0.1 to 10 uM after 12 to 24 hrs by Western blot analysis; format: ADME, cell-based
[17] = target: Glycogen synthase kinase-3 beta (Mus musculus) (UniProt Q9WV60); assay: Inhibition of GSK3beta in mouse Neuro2a cells assessed as reduction in tau phosphorylation at S262 residues at 0.1 to 5 uM pretreated for 12 to 24 hrs followed by OA addition and measured after 6 hrs by Western blot analysis; format: cell-based
[18] = test system: SH-SY5Y; assay: Cytotoxicity against human SH-SY5Y cells assessed as reduction in cell viability after 24 hrs by MTT assay; format: cell-based
[19] = target: Glycogen synthase kinase-3 beta (Mus musculus) (UniProt Q9WV60); assay: Inhibition of GSK-3beta in mouse Neuro2a cells harboring with pCAX/FLAG-tagged APP and pRK5/EGFP-tagged Tau P301L mutant at 0.1 to 10 uM assessed as increase in GSK-3beta phosphorylation at Ser9 residues after 24 hrs by Western blot analysis; format: cell-based
[20] = test system: Mus musculus; assay: Anti-alzhemeric activity in scopolamine-induced ICR mouse assessed as increase in GSK-3beta phosphorylation Ser9 residues in brain at 25 to 100 mg/kg, ip for 2 weeks followed by scopolamine treatment by Western blot analysis; format: functional, organism-based
[21] = target: c-Jun N-terminal kinase, JNK (Homo sapiens) (UniProt P45983+P53779+P45984); assay: Inhibition of JNK phosphorylation in OA-induced human SH-SY5Y cells pretreated for 24 hrs followed by OA addition and measured after 6 hrs by Western blot analysis; format: cell-based
[22] = test system: Mus musculus; assay: Anti-alzhemeric activity in scopolamine-induced ICR mouse assessed as increase in swimming speed at 25 to 100 mg/kg, ip for 2 weeks followed by scopolamine treatment and measured after 90 mins by Morris water maze test; format: functional, organism-based
[23] = test system: N2a; assay: Cytotoxicity against mouse Neuro2a cells assessed as reduction in cell viability after 24 hrs by MTT assay; format: cell-based
[24] = Toxicity in ICR mouse assessed as effect on body weight at 25 to 100 mg/kg, ip for 2 weeks; format: organism-based; settings: in vivo, 336 h
[25] = test system: Mus musculus; assay: Anti-alzhemeric activity in scopolamine-induced ICR mouse assessed as increase in swimming distance at 25 to 100 mg/kg, ip for 2 weeks followed by scopolamine treatment and measured after 90 mins by Morris water maze test; format: functional, organism-based
[26] = test system: Mus musculus; assay: Reversal of scopolamine-induced spatial memory impairment in ICR mouse assessed as decrease in time spent on […] at 25 to 100 mg/kg, ip for 2 weeks followed by scopolamine treatment and measured after 90 mins by Morris water maze test; format: functional, organism-based
[27] = target: Glycogen synthase kinase-3 beta (Mus musculus) (UniProt Q9WV60); assay: Inhibition of GSK-3beta in mouse Neuro2a cells harboring with pCAX/FLAG-tagged APP and pRK5/EGFP-tagged Tau P301L mutant at 0.1 to 10 uM assessed as reduction in GSK-3beta phosphorylation at Tyr216 residues after 24 hrs by Western blot analysis; format: cell-based
[28] = test system: N2a; assay: Effect on total tau protein level in mouse Neuro2a cells at 0.1 to 5 uM pretreated for 12 to 24 hrs followed by OA addition and measured after 6 hrs by Western blot analysis; format: cell-based
[29] = target: Glycogen synthase kinase-3 beta (Homo sapiens) (UniProt P49841); assay: Inhibition of GSK-3beta in human SH-SY5Y cells assessed as reduction in GSK-3beta phosphorylation at Tyr216 residues at 0.1 to 5 uM pretreated for 24 hrs followed by OA addition and measured after 6 hrs by Western blot analysis; format: cell-based
[30] = test system: Mus musculus; assay: Anti-alzhemeric activity in scopolamine-induced ICR mouse assessed as inhibition of tau phosphorylation at Ser262 residues in brain at 25 to 100 mg/kg, ip for 2 weeks followed by scopolamine treatment by Western blot analysis; format: functional, organism-based
[31] = test system: Mus musculus; assay: Anti-alzhemeric activity in scopolamine-induced ICR mouse assessed as reduction in tau phosphorylation at S202/T205 residues in hippocampal CA1 region at 25 to 100 mg/kg, ip for 2 weeks followed by scopolamine treatment by immunohistochemistry-based analysis; format: functional, organism-based
[32] = test system: Mus musculus; assay: Anti-alzhemeric activity in scopolamine-induced ICR mouse assessed as increase in time spent in the target quadrant at 25 to 100 mg/kg, ip for 2 weeks followed by scopolamine treatment and measured after 90 mins by Morris water maze test; format: functional, organism-based
[33] = test system: SH-SY5Y; assay: Inhibition of ERK phosphorylation in OA-induced human SH-SY5Y cells pretreated for 24 hrs followed by OA addition and measured after 6 hrs by Western blot analysis; format: cell-based
[34] = target: Glycogen synthase kinase-3 beta (Homo sapiens) (UniProt P49841); assay: Inhibition of GSK-3beta in human SH-SY5Y cells harboring with pCAX/FLAG-tagged APP and pRK5/EGFP-tagged Tau P301L mutant assessed as reduction in tau phosphorylation at S396 residues after 12 to 24 hrs by Western blot analysis; format: cell-based
[35] = Toxicity in ICR mouse assessed as effect on body weight at 1 mg/kg, ip for 2 weeks; format: organism-based; settings: in vivo, 336 h
[36] = test system: SH-SY5Y; assay: Antioxidant activity in OA-induced human SH-SY5Y cells assessed as increase in MDA level at 0.1 to 1 uM pretreated for 12 hrs followed by OA addition and measured after 12 hrs; format: functional, cell-based
[37] = target: Glycogen synthase kinase-3 beta (Homo sapiens) (UniProt P49841); assay: Inhibition of GSK-3beta in human SH-SY5Y cells harboring with pCAX/FLAG-tagged APP and pRK5/EGFP-tagged Tau P301L mutant at 0.1 to 10 uM assessed as increase in GSK-3beta phosphorylation at Ser9 residues after 24 hrs by Western blot analysis; format: cell-based
[38] = test system: SH-SY5Y; assay: Inhibition of tau aggregation in OA-induced human SH-SY5Y cells at 0.1 to 5 uM pretreated for 24 hrs followed by OA addition and measured after 6 hrs by Western blot analysis; format: functional, cell-based
[39] = target: Glycogen synthase kinase-3 beta (Mus musculus) (UniProt Q9WV60); assay: Inhibition of GSK-3beta in mouse Neuro2a cells harboring with pCAX/FLAG-tagged APP and pRK5/EGFP-tagged Tau P301L mutant assessed as reduction in tau phosphorylation at S404 residues after 12 to 24 hrs by Western blot analysis; format: cell-based
[40] = test system: N2a; assay: Effect on total tau protein level in mouse Neuro2a cells harboring with pCAX/FLAG-tagged APP and pRK5/EGFP-tagged Tau P301L mutant at 0.1 to 10 uM after 12 to 24 hrs by Western blot analysis; format: ADME, cell-based
[41] = test system: N2a; assay: Cytotoxicity against mouse Neuro2a cells assessed as reduction in cell viability after 12 hrs by MTT assay; format: cell-based

## COc1cc(CCc2cc(OC)c(O)c(OC)c2)ccc1O [MOSCATILIN]
[1]
  Activity: Non-Toxic
[2]
  inhibition: Active
[3]
  inhibition: Dose-dependent effect
[4]
  inhibition: Active
[5]
  inhibition: Dose-dependent effect
[6]
  Activity: Active
[7]
  Activity: 20.81%
[8]
  Activity: Active
[9]
  inhibition: Active
[10]
  Activity: Active
[11]
  IC50: > 20 µM
[12]
  inhibition: Active
[13]
  inhibition: Active
[14]
  Activity: Active
[15]
  inhibition: Dose-dependent effect
[16]
  Activity: Non-Toxic
[17]
  inhibition: Active
[18]
  IC50: > 20 µM
[19]
  inhibition: Active
[20]
  Activity: Active
[21]
  inhibition: Dose-dependent effect
[22]
  Activity: inactive
[23]
  IC50: > 20 µM
[24]
  Activity: Non-Toxic
[25]
  Activity: Active
[26]
  Activity: Active
[27]
  inhibition: Active
[28]
  Activity: Non-Toxic
[29]
  inhibition: Active
[30]
  Activity: Active
[31]
  Activity: Active
[32]
  Activity: Active
[33]
  inhibition: Dose-dependent effect
[34]
  inhibition: Dose-dependent effect
[35]
  Activity: Non-Toxic
[36]
  Activity: Active
[37]
  inhibition: Active
[38]
  inhibition: Active
[39]
  inhibition: Dose-dependent effect
[40]
  Activity: Non-Toxic
[41]
  IC50: > 20 µM
